According to US12643855B2, “Fluorogenic dimer compound, useful as a probe for detection of endogenous receptors” (UNIVERSITE DE STRASBOURG, priority 2020, dated 2026):
Like-named read-outs stand apart in the source and are kept apart here.

Key:
[1] = in MeOH; cited from earlier work
[2] = in EtOH; cited from earlier work
[3] = in EtOH; cited from earlier work; remark: listed apart in the source
[4] = molecular target: T1, endogenous OTR (oxytocin receptor) in mammary glands (Mus musculus, UniProt P97926); assay: In vivo fluorescence biodistribution study (small animal fluorescence imaging); details: lactating mice, 7.5 nmol i.v., imaged 30 min after
T1 construct: target-specific imaging of the naturally expressed receptor in living mice; from tissue; host or cells: living lactating Swiss mice (mammary glands), in vivo imaging
T1 sequence (P97926 1-388): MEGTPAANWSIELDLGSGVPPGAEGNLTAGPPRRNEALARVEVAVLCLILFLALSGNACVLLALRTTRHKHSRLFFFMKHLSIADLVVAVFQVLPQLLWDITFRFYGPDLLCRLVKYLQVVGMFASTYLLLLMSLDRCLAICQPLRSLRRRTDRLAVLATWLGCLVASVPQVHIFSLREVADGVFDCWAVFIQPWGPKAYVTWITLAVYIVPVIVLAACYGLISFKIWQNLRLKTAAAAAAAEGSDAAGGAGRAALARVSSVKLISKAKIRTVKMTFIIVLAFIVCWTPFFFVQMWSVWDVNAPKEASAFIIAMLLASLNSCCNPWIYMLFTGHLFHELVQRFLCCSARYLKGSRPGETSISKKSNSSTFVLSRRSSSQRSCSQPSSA

[5] = test system: GFP-fused oxytocin receptor (GFP-OTR); assay: Fluorescence confocal microscopy on living HEK293 cells expressing GFP-OTR, no-wash conditions; format: cell-based; details: 500 nM
Method: FIG. 1: Confocal microscopy studies of dCy5.5-PEG-CBT and mCy5.5-PEG-CBT on living HEK 293 cells expressing OTR-GFP fusion under no-wash conditions. Cells were incubated with the ligands for 5 min at room temperature prior to the imaging.
HEK293 cells expressing the GFP-fused oxytocin receptor (GFP-OTR) and wild-type HEK293 cells were cultured in Eagle's minimal essential medium (MEM, Invitrogen 21090) with 10% of heat-inactivated fetal bovine serum, 100 U/mL of penicillin, 100 µg/mL of streptomycin, 2 mM of glutamine and 50 µg/mL of hygromycin B for GFP-OTR cells at 37° C. in a humidified 5% CO2 atmosphere. 70-80% cell confluence was maintained by removal of a portion of the culture and replacement with fresh medium twice a week. For confocal microscopy studies, cells were seeded onto 35 mm ibiTreat Ibidi Polymer Coverslip at a density of 100 000 cells/Ibidi 24 h before microscopy.
[…] For competition experiments, a mixture of 10 nM of fluorescent ligands and 2 μM of carbetocin was used. Fluorescence confocal microscopy experiments were performed on a Leica TCS SPE-II microscope with a HXC PL APO 63×/1.40 OIL CS objective. GFP excitation was performed with a 488 nm 10 mW laser, the excitation of Cy5.5 was performed with a 635 nm 18 mW laser. Image treatment was proceeded using ImageJ (Wayne Rasband, National Institute of Mental Health, Bethesda).

Question: Which “Fluorescence quantum yield (QY) of the reference” value (“Fluorescence quantum yield (QY)” for short) [1] does the source give for CCCCCCCCCCCCCCCCCCN1/C(=C/C=C/C=C/C2=[N+](CCCCCCCCCCCCCCCCCC)c3ccccc3C2(C)C)C(C)(C)c2ccccc21.[O-][Cl+3]([O-])([O-])[O-] [DID] here?
Answer: 33%

Question: Which “Fluorescence quantum yield (QY)” value [2] does the source give for Rhodamine 800 here?
Answer: 25%

Question: And the “Fluorescence quantum yield (QY)” value [3]?
Answer: 25%

Question: What does the source list for CC[C@H](C)[C@@H]1NC(=O)[C@H](Cc2ccc(OC)cc2)NC(=O)CCCSC[C@@H](C(=O)N2CCC[C@H]2C(=O)N[C@@H](CCCCn2cc(CNC(=O)CCNC(=O)CCC(=O)NCCOCCOCCNC(=O)CCC(=O)NCCOCCOCCNC(=O)CCC(=O)NCCOCCOCCNC(=O)CCCCCN3/C(=C/C=C/C=C/C4=[N+](CCOCCOCCOCCOCCOCCOCCOCCOC)c5ccc6ccccc6c5C4(C)C)C(C)(C)c4c3ccc3ccccc43)nn2)C(=O)NCC(N)=O)NC(=O)[C@H](CC(N)=O)NC(=O)[C@H](CCC(N)=O)NC1=O.O=C([O-])C(F)(F)F [mCy5.5-PEG-CBT]?
Answer: Off-target fluorescence signal [4]: strong off-target fluorescence; Image background from unbound probe [5]: strong background
